Measurements from patent publication US20250236608A1, “EGFR INHIBITORS” (Blueprint Medicines Corporation, priority 2022, published 2025).
pIC50: −log10 of the molar value.

Experiments:
[1] = biological target: pEGFR (Tyr1068) in PC-9 cells (Ex19Del) (Homo sapiens (Human), UniProt P00533, DEL746-750); assay: PC-9 pEGFR AlphaLISA assay; format: cell-based; conditions: 4 hours incubation, p-EGFR (Tyr1068) AlphaLISA, read-out: Ext pEGFR_PC-9 Ex19Del IC50
In short: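 PC-9 cells seeded overnight in phenol-free DMEM with 10% FBS, then treated 4 h at 37°C with a 10-point, 4-fold compound series. Lysates assayed for pEGFR Tyr1068 by AlphaLISA SureFire; IC50 from % inhibition vs log concentration.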

EGFR L858R = EGFR L858R (Homo sapiens (Human), UniProt P00533, L858R); assay: Biochemical EGFR inhibition assay, EGFR L858R; conditions: Caliper mobility shift; 1.0 mM ATP or ATP Km; read-out: Enz EGFR_L858R IC50
EGFR (d746-750) = EGFR (d746-750) (Homo sapiens (Human), UniProt P00533, DEL746-750); assay: Biochemical EGFR inhibition assay, EGFR (d746-750); conditions: Caliper mobility shift; 1.0 mM ATP or ATP Km; read-out: Enz EGFR_Exon19-del746-750 IC50
Chain of EGFR (d746-750) (P00533 other isoform, or with tags, fused parts or gaps del 1-694/del 746-750 limits assumed): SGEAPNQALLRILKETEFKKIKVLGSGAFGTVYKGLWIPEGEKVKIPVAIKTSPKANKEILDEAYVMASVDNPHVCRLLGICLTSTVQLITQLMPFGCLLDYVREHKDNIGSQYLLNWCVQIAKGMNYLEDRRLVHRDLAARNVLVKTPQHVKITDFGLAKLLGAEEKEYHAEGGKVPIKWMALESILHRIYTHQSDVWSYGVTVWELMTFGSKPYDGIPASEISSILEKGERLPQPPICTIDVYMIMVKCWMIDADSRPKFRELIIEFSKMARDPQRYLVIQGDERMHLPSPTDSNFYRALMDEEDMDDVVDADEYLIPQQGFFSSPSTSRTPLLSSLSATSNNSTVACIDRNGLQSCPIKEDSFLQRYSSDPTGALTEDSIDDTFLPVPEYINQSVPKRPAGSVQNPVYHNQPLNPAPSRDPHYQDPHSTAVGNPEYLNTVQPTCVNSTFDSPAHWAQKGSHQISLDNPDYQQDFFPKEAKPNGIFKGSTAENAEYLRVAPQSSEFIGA

Chain of EGFR L858R (P00533 25-1210 L858R): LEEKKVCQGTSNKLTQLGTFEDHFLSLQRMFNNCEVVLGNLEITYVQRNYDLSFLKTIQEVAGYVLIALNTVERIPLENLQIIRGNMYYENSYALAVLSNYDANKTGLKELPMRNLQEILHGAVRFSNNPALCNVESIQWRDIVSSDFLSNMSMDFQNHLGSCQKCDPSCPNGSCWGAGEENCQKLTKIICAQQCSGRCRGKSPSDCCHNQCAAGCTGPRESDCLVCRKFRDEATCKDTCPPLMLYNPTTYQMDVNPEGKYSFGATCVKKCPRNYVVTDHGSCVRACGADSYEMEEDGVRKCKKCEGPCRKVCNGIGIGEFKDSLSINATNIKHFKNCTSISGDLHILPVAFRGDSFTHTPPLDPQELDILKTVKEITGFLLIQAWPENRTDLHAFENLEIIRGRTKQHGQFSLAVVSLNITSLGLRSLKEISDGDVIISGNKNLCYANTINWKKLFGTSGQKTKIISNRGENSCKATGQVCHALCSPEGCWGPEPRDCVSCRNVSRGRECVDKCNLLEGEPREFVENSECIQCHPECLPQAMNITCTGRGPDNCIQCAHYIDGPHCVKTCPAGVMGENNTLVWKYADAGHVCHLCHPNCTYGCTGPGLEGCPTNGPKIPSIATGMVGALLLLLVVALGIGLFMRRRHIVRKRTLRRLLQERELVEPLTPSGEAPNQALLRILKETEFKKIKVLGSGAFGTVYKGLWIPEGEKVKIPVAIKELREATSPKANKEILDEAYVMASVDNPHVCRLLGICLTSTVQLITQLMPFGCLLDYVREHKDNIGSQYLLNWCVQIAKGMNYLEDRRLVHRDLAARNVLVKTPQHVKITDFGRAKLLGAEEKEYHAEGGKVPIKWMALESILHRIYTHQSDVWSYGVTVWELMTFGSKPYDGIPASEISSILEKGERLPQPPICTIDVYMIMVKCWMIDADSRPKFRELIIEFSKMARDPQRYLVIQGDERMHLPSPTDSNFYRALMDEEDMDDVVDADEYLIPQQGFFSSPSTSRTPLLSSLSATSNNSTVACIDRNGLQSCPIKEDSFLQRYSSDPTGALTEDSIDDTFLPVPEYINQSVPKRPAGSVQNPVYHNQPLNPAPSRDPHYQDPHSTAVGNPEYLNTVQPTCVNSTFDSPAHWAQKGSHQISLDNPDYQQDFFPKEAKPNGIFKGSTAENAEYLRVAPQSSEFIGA
Chain of pEGFR (Tyr1068) in PC-9 cells (Ex19Del) (P00533 other isoform, or with tags, fused parts or gaps del 746-750): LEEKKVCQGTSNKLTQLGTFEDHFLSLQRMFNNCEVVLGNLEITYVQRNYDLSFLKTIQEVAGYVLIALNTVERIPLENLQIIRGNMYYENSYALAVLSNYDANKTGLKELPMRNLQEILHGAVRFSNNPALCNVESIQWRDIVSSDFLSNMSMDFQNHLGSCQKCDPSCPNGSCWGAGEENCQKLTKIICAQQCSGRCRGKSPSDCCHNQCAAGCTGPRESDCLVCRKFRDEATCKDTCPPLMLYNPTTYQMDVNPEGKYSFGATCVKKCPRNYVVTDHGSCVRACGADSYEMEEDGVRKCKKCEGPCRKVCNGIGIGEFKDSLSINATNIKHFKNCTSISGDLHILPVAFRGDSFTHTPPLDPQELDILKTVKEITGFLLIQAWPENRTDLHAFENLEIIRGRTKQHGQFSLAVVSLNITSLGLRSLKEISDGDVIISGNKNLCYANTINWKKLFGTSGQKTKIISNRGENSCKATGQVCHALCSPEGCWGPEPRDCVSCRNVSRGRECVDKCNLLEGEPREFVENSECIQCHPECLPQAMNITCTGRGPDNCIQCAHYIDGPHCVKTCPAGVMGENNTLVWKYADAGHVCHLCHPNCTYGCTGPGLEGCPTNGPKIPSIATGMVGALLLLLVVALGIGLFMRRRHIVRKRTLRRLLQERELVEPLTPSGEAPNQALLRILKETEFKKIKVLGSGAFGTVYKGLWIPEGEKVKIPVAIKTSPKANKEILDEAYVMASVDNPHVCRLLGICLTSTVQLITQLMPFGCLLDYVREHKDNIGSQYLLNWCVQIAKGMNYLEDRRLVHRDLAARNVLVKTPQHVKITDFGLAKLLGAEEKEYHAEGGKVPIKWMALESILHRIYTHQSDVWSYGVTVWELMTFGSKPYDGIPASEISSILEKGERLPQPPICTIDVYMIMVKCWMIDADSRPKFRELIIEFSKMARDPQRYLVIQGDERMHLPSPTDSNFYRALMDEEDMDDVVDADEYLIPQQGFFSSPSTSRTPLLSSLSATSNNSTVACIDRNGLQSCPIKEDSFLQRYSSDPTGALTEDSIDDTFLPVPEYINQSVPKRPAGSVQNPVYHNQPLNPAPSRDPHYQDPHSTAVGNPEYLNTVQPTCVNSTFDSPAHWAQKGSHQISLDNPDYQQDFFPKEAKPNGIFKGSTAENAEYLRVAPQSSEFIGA

COc1cc2ncnc(-c3cn(C)nc3-c3ccccc3)c2nc1OC(C)c1cscn1 (stereo not drawn) [Example 31, 4-(1-((7-methoxy-4-(1-methyl-3-phenyl-1H-pyrazol-4-yl)pyrido[3,2-d]pyrimidin-6-yl)oxy)ethyl)thiazole]
pIC50 [1]: 8.96 | pIC50 (EGFR L858R): 9.00 | pIC50 (EGFR (d746-750)): 9.10

COc1cc2ncnc(-c3cn(C)nc3-c3ccccc3)c2cc1NC(=O)c1cccnc1 [Example 325, N-(7-methoxy-4-(1-methyl-3-phenyl-1H-pyrazol-4-yl)quinazolin-6-yl)nicotinamide]
pIC50 [1]: 8.70 | pIC50 (EGFR L858R): 8.77 | pIC50 (EGFR (d746-750)): 9.00

CC(C)Oc1cc2ncnc(-c3cn(C)nc3-c3ccccc3)c2cc1[C@@H](C)O (single isomer, unassigned) [Example 114, (R)-1-(7-isopropoxy-4-(1-methyl-3-phenyl-1H-pyrazol-4-yl)quinazolin-6-yl)ethan-1-ol or (S)-1-(7-isopropoxy-4-(1-methyl-3-phenyl-1H-pyrazol-4-yl)quinazolin-6-yl)ethan-1-ol]
pIC50 [1]: 7.54 | pIC50 (EGFR L858R): 8.54 | pIC50 (EGFR (d746-750)): 8.64

COc1cc2ncnc(-c3cn(C)nc3-c3ccc(Cl)cc3)c2nc1NC(=O)C12CC(N(C)C)(C1)C2 [Example 474, N-{4-[3-(4-chlorophenyl)-1-methyl-1H-pyrazol-4-yl]-7-methoxypyrido[3,2-d]pyrimidin-6-yl}-3-(dimethylamino) bicyclo[1.1.1]pentane-1-carboxamide]
pIC50 [1]: 8.44 | pIC50 (EGFR L858R): 8.25 | pIC50 (EGFR (d746-750)): 8.70

COc1cc2ncnc(-c3cn(C)nc3-c3ccccc3)c2nc1NC(=O)C12CC(N(C)C)(C1)C2 [Example 404, 3-(dimethylamino)-N-(7-methoxy-4-(1-methyl-3-phenyl-1H-pyrazol-4-yl)pyrido[3,2-d]pyrimidin-6-yl)bicyclo[1.1.1]pentane-1-carboxamide]
pIC50 [1]: 8.44 | pIC50 (EGFR L858R): 8.23 | pIC50 (EGFR (d746-750)): 9.15

COc1cc2ncnc(-c3cn(CC(F)F)nc3-c3ccccc3)c2nc1OC [Example 20, 4-(1-(2,2-difluoroethyl)-3-phenyl-1H-pyrazol-4-yl)-6,7-dimethoxypyrido[3,2-d]pyrimidine]
pIC50 [1]: 9.05 | pIC50 (EGFR L858R): 8.92 | pIC50 (EGFR (d746-750)): 9.30

COc1cc2ncnc(-c3cn(C)nc3-c3ccccc3)c2nc1O[C@H](C)c1cocn1 [Example 40, (R)-4-(1-((7-methoxy-4-(1-methyl-3-phenyl-1H-pyrazol-4-yl)pyrido[3,2-d]pyrimidin-6-yl)oxy)ethyl) oxazole]
pIC50 [1]: 8.82 | pIC50 (EGFR L858R): 8.38 | pIC50 (EGFR (d746-750)): 8.54

COc1cc2ncnc(-c3cn(C)nc3-c3ccc(F)cc3)c2nc1NC(=O)C12CC(N(C)C)(C1)C2 [Example 402, 3-(dimethylamino)-N-(4-(3-(4-fluorophenyl)-1-methyl-1H-pyrazol-4-yl)-7-methoxypyrido[3,2-d]pyrimidin-6-yl)bicyclo[1.1.1]pentane-1-carboxamide]
pIC50 [1]: 8.42 | pIC50 (EGFR L858R): 8.51 | pIC50 (EGFR (d746-750)): 8.89

COc1cc2ncnc(-c3cn(C)nc3-c3ccccc3)c2cc1NC(=O)C1CC(F)(F)C1 [Example 346, 3,3-difluoro-N-(7-methoxy-4-(1-methyl-3-phenyl-1H-pyrazol-4-yl)quinazolin-6-yl)cyclobutane-1-carboxamide]
pIC50 [1]: 9.05 | pIC50 (EGFR L858R): 8.68 | pIC50 (EGFR (d746-750)): 8.89

CCOc1cc2ncnc(-c3cn(C)nc3-c3ccccc3)c2cc1NC(=O)c1cccnc1 [Example 296, N-(7-ethoxy-4-(1-methyl-3-phenyl-1H-pyrazol-4-yl)quinazolin-6-yl)nicotinamide]
pIC50 [1]: 8.96 | pIC50 (EGFR L858R): 8.85 | pIC50 (EGFR (d746-750)): 9.15

CCOc1cc2ncnc(-c3cn(C)nc3-c3ccccc3)c2cc1[C@@H](C)O (single isomer, unassigned) [Example 104, (R)-1-(7-ethoxy-4-(1-methyl-3-phenyl-1H-pyrazol-4-yl)quinazolin-6-yl)ethan-1-ol or (S)-1-(7-ethoxy-4-(1-methyl-3-phenyl-1H-pyrazol-4-yl)quinazolin-6-yl)ethan-1-ol]
pIC50 [1]: 8.28 | pIC50 (EGFR L858R): 8.68 | pIC50 (EGFR (d746-750)): 8.89
